Assay results published in patent US20240197666A1, “DITERPENOID COMPOUNDS THAT ACT ON PROTEIN KINASE C (PKC)” (K-Gen Therapeutics, Inc., priority 2021, published 2024).

Experiments:
C1b domain of human PKCε = target: T1, C1b domain of human PKCε (Homo sapiens, UniProt Q02156); assay: biochemical; type: binding; conditions: 3H-PDBu competition
T1 construct: Genes encoding C1b domains of human PKCα, δ, ε, θ, and PKD1 (PKCμ) were synthesized; made in house; host or cells: E. coli BL21(DE3)
Outline: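 First, the E. coli-produced human GST-C1b protein was mixed with compound and 3H-PDBu and shaken 10 min at 37° C. Next, the plate sat on ice 20 min before filtration and scintillation counting of bound tracer. Finally, IC50 fits were transformed into Ki values.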

PANC1 cells = assay: Sphere formation assay; type: cell-based; conditions: Homo sapiens, PANC-1, read-out: concentration exhibiting at least 50% inhibition on the sphere forming efficiency
Description: A group of diterpenoid compounds of the present disclosure were tested to assess their effects on blocking formation of spheres from cancer cell lines such as PANC1, a K-Ras mutant pancreatic cell line. Briefly, PANC1 cells were harvested, re-suspended as single cell suspensions, counted and seeded into Ultra Low Attachment Culture 96-well plate (Corning, Cat #3474) at 100 cells/well in 100 μl of complete media (with 10% FBS) containing 2% Matrigel (Corning, Cat #354234) and DMSO or compounds. Six replicates per condition were seeded. The seeded cells were placed in the 37° C. tissue culture incubator. 10 μl of low serum containing media (with 0.1% FBS) was added to each well every week. Spheres formed after 3-4 weeks were counted. Sphere forming efficiency was expressed as percentage of # of spheres/ # of cells seeded.

human PBMC cells = assay: Cytokine/chemokine gene expression in human PBMC (TaqMan); type: cell-based; conditions: 4 h;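 as to Gene Relative Expression CCL2: 2^-ΔΔCt fold change vs DMSO control normalized to 18S and GAPDH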;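 as to Gene Relative Expression GM-CSF: 2^-ΔΔCt fold change vs DMSO control normalized to 18S and GAPDH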;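 as to Gene Relative Expression IFN-α: 2^-ΔΔCt fold change vs DMSO control normalized to 18S and GAPDH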;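 as to Gene Relative Expression IFNγ: 2^-ΔΔCt fold change vs DMSO control normalized to 18S and GAPDH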
Description: Each treatment condition was performed in duplicates.

[1] = system: NFκB-driven transcription in HeLa-NFκB luciferase reporter cell line; assay: NFκB luciferase reporter assay; conditions: Homo sapiens, HeLa, 16 h, read-out: NFκB-luc HeLa cells EC50 (μM)
Description: A HeLa-NFκB luciferase reporter cell line (Wuxi Biology) was used to assess a group of PKC activator compounds for their ability to activate NFκB-driven transcription. […] One set of cells was assayed for luciferase activity (Promega, Cat #E1500) and the other set was assayed to determine the number of viable cells (for cell number normalization) using CellTiter-Glo (CTG) kit (Promega, Cat #G7570) according to manufacture's procedures. Normalized data (luciferase value/CTG value) were analyzed using GraphPad Prism5 to calculate EC50 for each compound (see Table 8).
To assess if activation of PKC is required for these compounds to activate NFκB, several PKC inhibitors including broad-spectrum and conventional PKC inhibitors were tested. In the assay described above, PKC inhibitors were added at the same time as the PKC activator compounds.

T1 sequence (Q02156 242-292 limits assumed): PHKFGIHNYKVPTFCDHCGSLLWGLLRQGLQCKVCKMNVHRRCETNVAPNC

Compound: CC1=C[C@H]2[C@@]3(O)[C@H](C)C[C@]4(OC(=O)[C@@H](N)CCCCCCc5ccccc5)[C@H]([C@@H]3C=C(CO)C[C@]2(O)C1=O)C4(C)C
- Ki (C1b domain of human PKCε): 10 to 30 nM
- IC50 (PANC1 cells): ≤ 50 nM
- Gene Relative Expression CCL2 (human PBMC cells; 0.01 μM): 1.81
- Gene Relative Expression GM-CSF (human PBMC cells; 0.01 μM): 1.00
- Gene Relative Expression IFN-α (human PBMC cells; 0.01 μM): 0.73
- Gene Relative Expression IFNγ (human PBMC cells; 0.01 μM): 1.46
- Gene Relative Expression IL-1β (human PBMC cells; 0.01 μM): 0.38
- Gene Relative Expression IL-2 (human PBMC cells; 0.01 μM): 1.32
- Gene Relative Expression IL-6 (human PBMC cells; 0.01 μM): 0.57
- Gene Relative Expression IL-8 (human PBMC cells; 0.01 μM): 0.44
- Gene Relative Expression IL-10 (human PBMC cells; 0.01 μM): 1.59
- Gene Relative Expression IL-12p40 (human PBMC cells; 0.01 μM): 0.34
- Gene Relative Expression IL-12p70 (human PBMC cells; 0.01 μM): 1.05
- Gene Relative Expression IL-13 (human PBMC cells; 0.01 μM): 0.37
- Gene Relative Expression IL-18 (human PBMC cells; 0.01 μM): 0.63
- Gene Relative Expression ISG15 (human PBMC cells; 0.01 μM): 0.94
- Gene Relative Expression MIP1a (CCL3) (human PBMC cells; 0.01 μM): 1.29
- Gene Relative Expression MX1 (human PBMC cells; 0.01 μM): 0.77
- Gene Relative Expression OAS1 (human PBMC cells; 0.01 μM): 0.85
- Gene Relative Expression TNF-α (human PBMC cells; 0.01 μM): 1.34
- Gene Relative Expression CCL2 (human PBMC cells; 0.03 μM): 6.53
- Gene Relative Expression GM-CSF (human PBMC cells; 0.03 μM): 1.88
- Gene Relative Expression IFN-α (human PBMC cells; 0.03 μM): 1.21
- Gene Relative Expression IFNγ (human PBMC cells; 0.03 μM): 1.49
- Gene Relative Expression IL-1β (human PBMC cells; 0.03 μM): 0.94
- Gene Relative Expression IL-2 (human PBMC cells; 0.03 μM): 3.59
- Gene Relative Expression IL-4 (human PBMC cells; 0.03 μM): 1.19
- Gene Relative Expression IL-6 (human PBMC cells; 0.03 μM): 1.23
- Gene Relative Expression IL-8 (human PBMC cells; 0.03 μM): 0.66
- Gene Relative Expression IL-10 (human PBMC cells; 0.03 μM): 0.86
- Gene Relative Expression IL-12p40 (human PBMC cells; 0.03 μM): 0.38
- Gene Relative Expression IL-12p70 (human PBMC cells; 0.03 μM): 0.96
- Gene Relative Expression IL-13 (human PBMC cells; 0.03 μM): 5.87
- Gene Relative Expression IL-18 (human PBMC cells; 0.03 μM): 0.19
- Gene Relative Expression ISG15 (human PBMC cells; 0.03 μM): 0.97
- Gene Relative Expression MIP1a (CCL3) (human PBMC cells; 0.03 μM): 1.67
- Gene Relative Expression MX1 (human PBMC cells; 0.03 μM): 0.65
- Gene Relative Expression OAS1 (human PBMC cells; 0.03 μM): 0.55
- Gene Relative Expression TNF-α (human PBMC cells; 0.03 μM): 2.91
- Gene Relative Expression CCL2 (human PBMC cells; 0.10 μM): 0.40
- Gene Relative Expression GM-CSF (human PBMC cells; 0.10 μM): 21.01
- Gene Relative Expression IFN-α (human PBMC cells; 0.10 μM): 0.80
- Gene Relative Expression IFNγ (human PBMC cells; 0.10 μM): 11.33
- Gene Relative Expression IL-1β (human PBMC cells; 0.10 μM): 3.00
- Gene Relative Expression IL-2 (human PBMC cells; 0.10 μM): 4.98
- Gene Relative Expression IL-4 (human PBMC cells; 0.10 μM): 2.78
- Gene Relative Expression IL-6 (human PBMC cells; 0.10 μM): 6.15
- Gene Relative Expression IL-8 (human PBMC cells; 0.10 μM): 0.44
- Gene Relative Expression IL-10 (human PBMC cells; 0.10 μM): 0.12
- Gene Relative Expression IL-12p70 (human PBMC cells; 0.10 μM): 0.74
- Gene Relative Expression IL-13 (human PBMC cells; 0.10 μM): 121.59
- Gene Relative Expression IL-18 (human PBMC cells; 0.10 μM): 0.05
- Gene Relative Expression ISG15 (human PBMC cells; 0.10 μM): 1.57
- Gene Relative Expression MIP1a (CCL3) (human PBMC cells; 0.10 μM): 4.95
- Gene Relative Expression MX1 (human PBMC cells; 0.10 μM): 1.06
- Gene Relative Expression OAS1 (human PBMC cells; 0.10 μM): 0.71
- Gene Relative Expression TNF-α (human PBMC cells; 0.10 μM): 6.52
- EC50 [1]: 0.001 to 0.01 µM

Compound: CC1=C[C@H]2[C@@]3(O)[C@H](C)C[C@]4(OC(=O)[C@@H](N)C5Cc6ccccc6C5)[C@H]([C@@H]3C=C(CO)C[C@]2(O)C1=O)C4(C)C
- Ki (C1b domain of human PKCε): 10 to 30 nM
- IC50 (PANC1 cells): ≤ 150 nM
- EC50 [1]: 0.06 to 0.1 µM

Compound: CC1=C[C@H]2[C@@]3(O)[C@H](C)C[C@]4(OC(=O)[C@@H](N)CC5CCCCC5)[C@H]([C@@H]3C=C(CO)C[C@]2(O)C1=O)C4(C)C
- Ki (C1b domain of human PKCε): 10 to 30 nM
- EC50 [1]: 0.03 to 0.06 µM

Compound: CC1=C[C@H]2[C@@]3(O)[C@H](C)C[C@]4(OC(=O)[C@@H](N)[C@]56C[C@H]7C[C@H](C[C@H](C7)C5)C6)[C@H]([C@@H]3C=C(CO)C[C@]2(O)C1=O)C4(C)C
- IC50 (PANC1 cells): ≤ 50 nM
- Gene Relative Expression CCL2 (human PBMC cells; 0.01 μM): 5.58
- Gene Relative Expression GM-CSF (human PBMC cells; 0.01 μM): 1.59
- Gene Relative Expression IFN-α (human PBMC cells; 0.01 μM): 0.78
- Gene Relative Expression IFNγ (human PBMC cells; 0.01 μM): 1.69
- Gene Relative Expression IL-1β (human PBMC cells; 0.01 μM): 0.59
- Gene Relative Expression IL-2 (human PBMC cells; 0.01 μM): 3.06
- Gene Relative Expression IL-4 (human PBMC cells; 0.01 μM): 0.84
- Gene Relative Expression IL-6 (human PBMC cells; 0.01 μM): 1.17
- Gene Relative Expression IL-8 (human PBMC cells; 0.01 μM): 0.71
- Gene Relative Expression IL-10 (human PBMC cells; 0.01 μM): 1.12
- Gene Relative Expression IL-12p40 (human PBMC cells; 0.01 μM): 0.89
- Gene Relative Expression IL-12p70 (human PBMC cells; 0.01 μM): 1.03
- Gene Relative Expression IL-13 (human PBMC cells; 0.01 μM): 3.10
- Gene Relative Expression IL-18 (human PBMC cells; 0.01 μM): 0.26
- Gene Relative Expression ISG15 (human PBMC cells; 0.01 μM): 1.01
- Gene Relative Expression MIP1a (CCL3) (human PBMC cells; 0.01 μM): 1.65
- Gene Relative Expression MX1 (human PBMC cells; 0.01 μM): 0.84
- Gene Relative Expression OAS1 (human PBMC cells; 0.01 μM): 0.74
- Gene Relative Expression TNF-α (human PBMC cells; 0.01 μM): 2.39
- Gene Relative Expression CCL2 (human PBMC cells; 0.03 μM): 3.59
- Gene Relative Expression GM-CSF (human PBMC cells; 0.03 μM): 8.38
- Gene Relative Expression IFN-α (human PBMC cells; 0.03 μM): 0.46
- Gene Relative Expression IFNγ (human PBMC cells; 0.03 μM): 3.82
- Gene Relative Expression IL-1β (human PBMC cells; 0.03 μM): 2.26
- Gene Relative Expression IL-2 (human PBMC cells; 0.03 μM): 7.78
- Gene Relative Expression IL-4 (human PBMC cells; 0.03 μM): 2.54
- Gene Relative Expression IL-6 (human PBMC cells; 0.03 μM): 0.86
- Gene Relative Expression IL-8 (human PBMC cells; 0.03 μM): 0.54
- Gene Relative Expression IL-10 (human PBMC cells; 0.03 μM): 0.41
- Gene Relative Expression IL-12p40 (human PBMC cells; 0.03 μM): 0.32
- Gene Relative Expression IL-12p70 (human PBMC cells; 0.03 μM): 0.87
- Gene Relative Expression IL-13 (human PBMC cells; 0.03 μM): 52.65
- Gene Relative Expression IL-18 (human PBMC cells; 0.03 μM): 0.06
- Gene Relative Expression ISG15 (human PBMC cells; 0.03 μM): 1.33
- Gene Relative Expression MIP1a (CCL3) (human PBMC cells; 0.03 μM): 2.82
- Gene Relative Expression MX1 (human PBMC cells; 0.03 μM): 1.01
- Gene Relative Expression OAS1 (human PBMC cells; 0.03 μM): 0.78
- Gene Relative Expression TNF-α (human PBMC cells; 0.03 μM): 4.48
- Gene Relative Expression CCL2 (human PBMC cells; 0.10 μM): 0.38
- Gene Relative Expression GM-CSF (human PBMC cells; 0.10 μM): 16.06
- Gene Relative Expression IFN-α (human PBMC cells; 0.10 μM): 0.31
- Gene Relative Expression IFNγ (human PBMC cells; 0.10 μM): 18.08
- Gene Relative Expression IL-1β (human PBMC cells; 0.10 μM): 3.00
- Gene Relative Expression IL-2 (human PBMC cells; 0.10 μM): 3.29
- Gene Relative Expression IL-4 (human PBMC cells; 0.10 μM): 2.77
- Gene Relative Expression IL-6 (human PBMC cells; 0.10 μM): 6.72
- Gene Relative Expression IL-8 (human PBMC cells; 0.10 μM): 0.60
- Gene Relative Expression IL-10 (human PBMC cells; 0.10 μM): 0.09
- Gene Relative Expression IL-12p40 (human PBMC cells; 0.10 μM): 0.22
- Gene Relative Expression IL-12p70 (human PBMC cells; 0.10 μM): 0.76
- Gene Relative Expression IL-13 (human PBMC cells; 0.10 μM): 101.38
- Gene Relative Expression IL-18 (human PBMC cells; 0.10 μM): 0.06
- Gene Relative Expression ISG15 (human PBMC cells; 0.10 μM): 1.54
- Gene Relative Expression MIP1a (CCL3) (human PBMC cells; 0.10 μM): 5.73
- Gene Relative Expression MX1 (human PBMC cells; 0.10 μM): 0.99
- Gene Relative Expression OAS1 (human PBMC cells; 0.10 μM): 0.69
- Gene Relative Expression TNF-α (human PBMC cells; 0.10 μM): 6.25
- EC50 [1]: 0.001 to 0.01 µM
